Results taken from patent US9833423B2 (KOREA RESEARCH INSTITUTE OF CHEMICAL TECHNOLOGY, priority 2011, dated 2017).
Values after ≈ are worked out from the molar mass of the structure shown.

Key:
[1] = in vitro; conditions: human

| SMILES | CC50 ([1]; CC50) [µg/mL] | melting point [°C] | CC50 ([1]; Picorna-virus CC50) [µg/mL] |
| --- | --- | --- | --- |
| CC(=O)c1ccc(C2(O)C(=O)c3ccccc3C2=O)c(O)c1 [Example 20, 2-(4-Acetyl-2-hydroxy-phenyl)-2-hydroxy-indan-1,3-dione] | > 100 | 177 to 180 | – |
| COc1cc(C(C)C)ccc1C1(Cl)C(=O)c2cccc([N+](=O)[O-])c2C1=O (stereo not shown) [Example 39, 2-Chloro-2-(4-isopropyl-2-methoxyphenyl)-4-nitro-2H-inden-1,3-dione] | 6.67 (≈ 17.8 µM) | 81 to 84 | – |
| CC(=O)Oc1c(C2(OC(C)=O)C(=O)c3ccccc3C2=O)ccc(Cl)c1Cl [Example 4, 6-(2-Acetoxy-1,3-dioxo-2,3-dihydro-1H-inden-2-yl)-2,3-dichlorophenyl acetate] | 50.4 | 129 to 136 | – |
| CCN(CC)C(=O)Oc1cc(C(C)C)ccc1C1(OC(=O)N(CC)CC)C(=O)c2ccccc2C1=O [Example 33, Diethyl-carbamic acid 2-(2-diethylcarbamoyloxy-1,3-dioxo-indan-2-yl)-5-isopropyl-phenyl ester] | > 100 | 103 to 105 | – |
| Cc1cc(C2(O)C(=O)c3ccccc3C2=O)c(C)cc1O [Example 35, 2-Hydroxy-2-(4-hydroxy-2,5-dimethylphenyl)-1H-inden-1,3(2H)-dione] | 59.8 (≈ 212 µM) | 228 to 230 | – |
| COc1cc(C(C)C)ccc1C1(NC(=O)c2ccccc2)C(=O)c2ccccc2C1=O [Example 55, N-(2-(4-Isopropyl-2-methoxyphenyl)-1,3-dioxo-2,3-dihydro-1H-inden-2-yl)benzamide] | > 117 | 106 to 108 | – |
| Cc1cc(C2(O)C(=O)c3ccccc3C2=O)cc(C)c1O [Example 26, 2-Hydroxy-2-(4-hydroxy-3,5-dimethyl-phenyl)-indan-1,3-dione] | > 100 | 210 to 213 | – |
| CCOC(=O)Cc1cc(OC)c(OC(C)=O)c(C2(OC(C)=O)C(=O)c3ccccc3C2=O)c1 [Example 1, Ethyl 2-(4-acetoxy-3-(2-acetoxy-1,3-dioxo-2,3-dihydro-1H-inden-2-yl)-5-methoxyphenyl)acetate] | > 100 | 102 to 107 | – |
| CCOC(=O)NC1(c2ccc(C(C)C)cc2OC)C(=O)c2ccccc2C1=O [Example 64, Ethyl 2-(4-isopropyl-2-methoxyphenyl)-1,3-dioxo-2,3-dihydro-1H-inden-2-ylcarbamate] | 87.8 (≈ 230 µM) | 149 to 150 | – |
| CC(=O)Oc1ccc(C)nc1C1(OC(C)=O)C(=O)c2ccccc2C1=O [Example 71, 2-(2-Acetoxy-1,3-dioxo-2,3-dihydro-1H-inden-2-yl)-6-methylpyridin-3-yl acetate] | > 100 | – | – |
| CCC(C)(C)c1ccc(OC(C)=O)c(C2(OC(C)=O)C(=O)c3ccccc3C2=O)c1 [Example 17, 2-(2-Acetoxy-1,3-dioxo-2,3-dihydro-1H-inden-2-yl)-4-tert-pentylphenyl acetate] | 9.3 | 146 to 151 | – |
| COc1ccc2c(c1)C(=O)C(OC(C)=O)(c1ccc(C(C)C)cc1OC(C)=O)C2=O (stereo not shown) [Example 27, 2-(2-Acetoxy-4-isopropylphenyl)-5-methoxy-1,3-dioxo-2,3-dihydro-1H-inden-2-yl acetate] | 9.5 | 146 to 148 | – |
| CC(C)c1ccc(C2(O)C(=O)c3ccccc3C2=O)c(OCc2ccccc2)c1 [Example 24, 2-(2-Benzyloxy-4-isopropyl-phenyl)-2-hydroxy-indan-1,3-dione] | > 100 | 197 to 199 | – |
| CCN(CC)C(=O)Oc1cc(C(C)C)ccc1C1(O)C(=O)c2ccccc2C1=O [Example 34, 2-(2-Hydroxy-1,3-dioxo-2,3-dihydro-1H-inden-2-yl)-5-isopropylphenyl diethylcarbamate] | 46.2 (≈ 117 µM) | 103 to 106 | – |
| CC(=O)Nc1cc(C)c(C)cc1C1(O)C(=O)c2ccccc2C1=O [Example 86, N-(2-(2-Hydroxy-1,3-dioxo-2,3-dihydro-1H-inden-2-yl)-4,5-dimethylphenyl)acetamide] | – | – | 4.63 (≈ 14.3 µM) |
| COc1cc(C(C)C)ccc1C1(O)C(=O)c2cccc(N)c2C1=O (stereo not shown) [Example 41, 4-Amino-2-hydroxy-2-(4-isopropyl-2-methoxyphenyl)-2H-inden-1,3-dione] | – | 219 to 220 | – |
| COc1cc(C(C)C)ccc1C1(NC(=O)C2CC2)C(=O)c2ccccc2C1=O [Example 56, N-(2-(4-Isopropyl-2-methoxyphenyl)-1,3-dioxo-2,3-dihydro-1H-inden-2-yl) cyclopropancarboxamide] | 87.8 (≈ 233 µM) | 145 to 147 | – |
| COc1cc(NC(=O)C(C)C)c(C2(O)C(=O)c3cc(OC)c(OC)cc3C2=O)cc1OC [Example 108, N-[2-(2-Hydroxy-5,6-dimethoxy-1,3-dioxo-indan-2-yl)-4,5-dimethoxy-phenyl]-isobutyramide] | – | – | > 100 |
| CCCC(=O)Nc1cc(C)c(C)cc1C1(O)C(=O)c2ccccc2C1=O [Example 89, N-(2-(2-Hydroxy-1,3-dioxo-2,3-dihydro-1H-inden-2-yl)-4,5-dimethylphenyl)butyramide] | – | – | 10.7 (≈ 30.4 µM) |
| CCc1ccc(C2(O)C(=O)c3ccccc3C2=O)c(NC(C)=O)c1 [Example 88, N-(5-Ethyl-2-(2-hydroxy-1,3-dioxo-2,3-dihydro-1H-inden-2-yl)phenyl)acetamide] | – | – | 4.49 (≈ 13.9 µM) |
| O=C1c2ccccc2C(=O)C1(O)c1cc2ncccc2cc1O [Example 75, 2-Hydroxy-2-(6-hydroxyquinolin-7-yl)-1H-inden-1, 3(2H)-dione] | > 100 | – | – |
| COc1cc(C(C)C)ccc1C1(O)C(=O)c2c(N)ccc(NC(C)=O)c2C1=O (stereo not shown) [Example 44, N-(7-Amino-2-hydroxy-2-(4-isopropyl-2-methoxyphenyl)-1,3-dioxo-2,3-dihydro-1H-inden-4-yl)acetamide] | > 117 | – | – |
| COc1cc(C(C)C)ccc1C1(O)C(=O)c2cccc([N+](=O)[O-])c2C1=O (stereo not shown) [Example 38, 2-Hydroxy-2-(4-isopropyl-2-methoxyphenyl)-4-nitro-2H-inden-1,3-dione] | > 100 | – | – |
| COc1cc(NC(=O)C(C)C)c(C2(O)C(=O)c3cccc(N)c3C2=O)cc1OC (stereo not shown) [Example 107, N-[2-(4-Amino-2-hydroxy-1,3-dioxo-indan-2-yl)-4,5-dimethoxy-phenyl]-isobutyramide] | – | – | > 100 |
| CCOC(=O)Oc1cc(C(C)C)ccc1C1(OC(=O)OCC)C(=O)c2cccnc2C1=O (stereo not shown) [Example 105, ethyl (6-(2-((ethoxycarbonyl)oxy)-4-isopropylphenyl)-5,7-dioxo-6,7-dihydro-5H-cyclopenta[b]pyridin-6-yl)carbonate] | – | – | > 100 |
| O=C1c2ccccc2C(=O)C1(O)c1ncc(Cl)cc1O [Example 73, 2-(5-Chloro-3-hydroxypyridin-2-yl)-2-hydroxy-1H-inden-1,3(2H)-dione] | > 100 | – | – |
| COc1cc(C(C)C)ccc1C1(N=[N+]=[N-])C(=O)c2cccc([N+](=O)[O-])c2C1=O (stereo not shown) [Example 40, 2-Azido-2-(4-isopropyl-2-methoxyphenyl)-4-nitro-2H-inden-1,3-dione] | 53.2 (≈ 140 µM) | – | – |
| COc1cccc(C2C(=O)c3ccccc3C2=O)c1 [Example 104, 2-(3-Methoxyphenyl)-2H-inden-1,3-dione] | – | – | > 100 |
| Cc1cc(NC(=O)C(C)C)c(C2(O)C(=O)c3ccccc3C2=O)cc1C [Example 90, N-(2-(2-Hydroxy-1,3-dioxo-2,3-dihydro-1H-inden-2-yl)-4,5-dimethylphenyl)isobutyramide] | – | – | 38.3 (≈ 109 µM) |
